Reference: patent publication US20250197387A1, “BCL-XL DEGRADERS AND USES THEREOF” (Kymera Therapeutics, Inc., priority 2021, published 2025)

Experiments:
Type in all cases: cell-based
MOLT-4 cells = test: CTG (CellTiter-Glo) cell viability assay, MOLT-4; settings: Homo sapiens, MOLT-4, 72 h, 3 day incubation, read-out: CTG Cell Viability Assay - MOLT-4 3 day: Average external-IC50
In short: (§1)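 10,000 cells/well; 9 doses, 1:3 from 10 μM top; 0.2% DMSO; 3 d, 37 °C, 5% CO2; CTG luminescence; IC50 via 3-parameter logistic fit. Letter bins differ: Caki-2 C/D cut at 10.0 μM, MOLT-4 at 3.0 μM.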

Caki-2 cells = test: CTG (CellTiter-Glo) cell viability assay, Caki-2; settings: Homo sapiens, 72 h, 3 day incubation, read-out: CTG Chempartner - Caki-2 3 day: Average external-IC50
In short: as §1

BCL-XL [1] = target: T1, BCL-XL (Homo sapiens, UniProt Q07817); test: BCL-XL degradation assay, western blot in MOLT-4 cells, 16 h; settings: western blot, MOLT-4 cells, 16 h; for Dmax: read-out: Bcl-xL WB in MOLT-4 degradation 16 h: Average Dmax %; for DC50: read-out: Bcl-xL WB in MOLT-4 degradation 16 h: Mean external-Abs DC50
T1 construct: endogenous in cells; host or cells: MOLT-4
T1 sequence (Q07817 whole entry): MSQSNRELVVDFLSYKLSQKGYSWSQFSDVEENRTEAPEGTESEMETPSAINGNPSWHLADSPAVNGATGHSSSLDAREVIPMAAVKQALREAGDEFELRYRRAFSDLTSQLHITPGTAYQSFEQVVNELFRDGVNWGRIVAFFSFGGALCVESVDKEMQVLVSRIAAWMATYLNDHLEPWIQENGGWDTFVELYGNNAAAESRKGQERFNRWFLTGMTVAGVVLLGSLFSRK
In short: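 Infrared-imaged western blots quantified BCL-xL (normalised against beta-actin/GAPDH) after 16 hr, 37° C exposure of MOLT-4 cells to 0.02-10 μM compound; results given as DC50 and Dmax % bins.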

BCL-XL [2] = target: T1, BCL-XL; test: Bcl-xL ELISA degradation in MOLT-4 cells, 6 h; settings: for DC50: read-out: Bcl-xL ELISA in MOLT-4 degradation 6 h: Mean external-Abs DC50
Procedure: The letter codes for BCL-XL DC50 include: A (<0.01 μM); B (0.01-0.1 μM); C (>[…]); D (>0.5-1.0 μM); and E (>1.0 μM). The letter codes for Dmax % include A (>75%); B (50 to 75%); C (<50%).

IC50 (MOLT-4 cells) [µM]	Dmax (BCL-XL [1]) [%]	DC50 (BCL-XL [1]) [µM]	Dmax (BCL-XL [2]) [%]	DC50 (BCL-XL [2]) [µM]	SMILES	IC50 (Caki-2 cells) [µM]
< 0.1	> 75	0.01 to 0.1	50 to 75	0.1 to 0.5	C#Cc1ccc([C@H](C)NC(=O)[C@@H]2C[C@@H](O)CN2C(=O)[C@@H](NC(=O)CCCCCC(=O)N2CCN(CC[C@H](CSc3ccccc3)Nc3ccc(S(=O)(=O)NC(=O)c4ccc(N5CCN(CC6=C(c7ccc(Cl)cc7)CCC(C)(C)C6)CC5)cc4)cc3S(=O)(=O)C(F)(F)F)CC2)C(C)(C)C)cc1 [I-388]	> 10
< 0.1	> 75	0.01 to 0.1	< 50	> 1	Cc1ncsc1-c1ccc(CNC(=O)[C@@H]2C[C@@H](O)CN2C(=O)[C@@H](NC(=O)CCCCCC(=O)N2CCN(CC[C@H](CSc3ccccc3)Nc3ccc(S(=O)(=O)NC(=O)c4ccc(N5CCN(CC6=C(c7ccc(Cl)cc7)CCC(C)(C)C6)CC5)cc4)cc3S(=O)(=O)C(F)(F)F)CC2)C(C)(C)C)cc1 [I-389]	1 to 10
< 0.1	> 75	< 0.01	50 to 75	0.01 to 0.1	Cc1ncsc1-c1ccc(CNC(=O)[C@@H]2C[C@@H](O)CN2C(=O)[C@@H](NC(=O)C2(F)CC2)C(C)(C)C)c(OCCN2CCN(CC[C@H](CSc3ccccc3)Nc3ccc(S(=O)(=O)NC(=O)c4ccc(N5CCN(CC6=C(c7ccc(Cl)cc7)CCC(C)(C)C6)CC5)cc4)cc3S(=O)(=O)C(F)(F)F)CC2)c1 [I-394]	> 10
< 0.1	> 75	< 0.01	< 50	0.01 to 0.1	Cc1ncsc1-c1ccc([C@H](C)NC(=O)[C@@H]2C[C@@H](O)CN2C(=O)[C@@H](NC(=O)CCCCCCC(=O)N2CCN(CC3(C)CCC(c4ccc(Cl)cc4)=C(CN4CCN(c5ccc(C(=O)NS(=O)(=O)c6ccc(N[C@H](CCN7CCOCC7)CSc7ccccc7)c(S(=O)(=O)C(F)(F)F)c6)cc5)CC4)C3)CC2)C(C)(C)C)cc1 (stereo partly drawn) [I-395]	0.1 to 1
< 0.1	> 75	< 0.01	50 to 75	0.01 to 0.1	Cc1ncsc1-c1ccc([C@H](C)NC(=O)[C@@H]2C[C@@H](O)CN2C(=O)[C@@H](NC(=O)CCCCCCC(=O)N2CCN(C[C@]3(C)CCC(c4ccc(Cl)cc4)=C(CN4CCN(c5ccc(C(=O)NS(=O)(=O)c6ccc(N[C@H](CCN7CCOCC7)CSc7ccccc7)c(S(=O)(=O)C(F)(F)F)c6)cc5)CC4)C3)CC2)C(C)(C)C)cc1 [I-397]	0.1 to 1
